The values that follow come from patent publication US20100075926A1, “ACTIVATION OF HISTONE DEACETYLASE 1 (HDAC1) PROTECTS AGAINST DNA DAMAGE AND INCREASES NEURONAL SURVIVAL” (priority 2008, published 2010).

T2 sequence (Q92769 whole entry): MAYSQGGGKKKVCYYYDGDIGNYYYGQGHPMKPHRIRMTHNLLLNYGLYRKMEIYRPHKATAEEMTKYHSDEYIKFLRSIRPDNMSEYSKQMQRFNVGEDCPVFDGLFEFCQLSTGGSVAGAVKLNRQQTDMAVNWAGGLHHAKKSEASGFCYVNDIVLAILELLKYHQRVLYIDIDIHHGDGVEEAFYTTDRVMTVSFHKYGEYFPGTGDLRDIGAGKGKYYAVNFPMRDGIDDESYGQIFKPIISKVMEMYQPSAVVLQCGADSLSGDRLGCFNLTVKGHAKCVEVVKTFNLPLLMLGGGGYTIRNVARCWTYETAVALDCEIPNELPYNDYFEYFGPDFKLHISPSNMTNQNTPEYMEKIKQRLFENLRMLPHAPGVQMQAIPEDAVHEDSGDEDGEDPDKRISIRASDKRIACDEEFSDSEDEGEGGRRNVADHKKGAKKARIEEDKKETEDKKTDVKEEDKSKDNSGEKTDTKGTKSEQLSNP

In the first test the target is T1, recombinant human HDAC3 (Homo sapiens, UniProt O15379).
T1 construct: purchased BPS Biosciences
T1 sequence (O15379 whole entry): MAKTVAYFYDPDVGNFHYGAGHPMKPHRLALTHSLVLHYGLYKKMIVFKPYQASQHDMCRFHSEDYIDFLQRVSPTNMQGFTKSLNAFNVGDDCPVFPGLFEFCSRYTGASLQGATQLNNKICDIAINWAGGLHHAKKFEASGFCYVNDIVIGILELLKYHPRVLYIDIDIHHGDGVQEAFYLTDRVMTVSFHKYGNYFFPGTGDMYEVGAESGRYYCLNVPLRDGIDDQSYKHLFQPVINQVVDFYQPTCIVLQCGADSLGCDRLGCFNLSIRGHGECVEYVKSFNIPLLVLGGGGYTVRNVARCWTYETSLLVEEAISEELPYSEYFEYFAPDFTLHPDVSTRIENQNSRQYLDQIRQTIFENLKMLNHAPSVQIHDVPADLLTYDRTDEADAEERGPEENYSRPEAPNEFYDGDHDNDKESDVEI
T1 sequence (Q9Y618 395-489 partner limits assumed): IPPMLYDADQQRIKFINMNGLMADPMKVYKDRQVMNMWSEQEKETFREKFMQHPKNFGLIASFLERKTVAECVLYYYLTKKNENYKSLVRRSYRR
In words: 384-well fluorometric deacetylase assay (substrate MAZ1600), HDAC3. The format is biochemical. The note with it: rate of reaction (slope); DMSO control 54625. The text has this: (§1) TCEP was omitted from the assay buffer. Rates of reactions (slopes) were normalized to the mean of DMSO control treatments for each enzyme on each plate. Bradner J E, West N, Grachan M L, Greenberg E F, Haggarty S J, Mazitsheck. Nature Chemical Biology (under review). Bradner J E, West N, Grachan M L, Greenberg E F, Haggarty S J, Mazitsheck. Chemical Phylogenetics of Histone Deacetylases. […] Z
As for `NC(C(=O)O)c1nnn[nH]1` (racemic), the HDAC3 slope stood at 56930.

Regarding `NCC(CC(=O)O)c1ccc(Cl)s1` (racemic) [(+-)-4-amino-3-(5-chloro-2-thienyl)-butanoic acid], the HDAC3 slope is 54049.

For `CC1(C)S[C@@H]2[C@H](NC(=O)[C@H](N)c3ccccc3)C(=O)N2[C@H]1C(=O)O` [Ampicillin trihydrate], the HDAC3 slope was 56660.

As to `O=C(O)[C@H]1C[C@@H](CP(=O)(O)O)CCN1` [CGS 19755], the HDAC3 slope is recorded as 57057.

In the case of `N[C@H](CC(=O)O)C(=O)O` [D- ASPARTIC ACID, D-aspartic acid], the HDAC3 slope is recorded as 54899.

In the case of `CC(O)(P(=O)([O-])O)P(=O)([O-])O.[Na+].[Na+]` [Etidronic acid, disodium salt], the HDAC3 slope is 58286.

Turning to `O=C(O)[C@@H]1C[C@H]2C[C@@H](CP(=O)(O)O)CC[C@H]2CN1` [LY 235959], the HDAC3 slope was determined as 65435.

Consider `C[C@H](N)[C@H](O)c1ccc(O)c(O)c1` [Levonordefrin], for which the HDAC3 slope worked out at 62457.

For `C[C@](N)(Cc1ccc(O)c(O)c1)C(=O)O` [Methyldopa (L,-)], the HDAC3 slope worked out at 60891.

In the case of `CCN(CC)CCc1nc(-c2ccccc2)no1.O=C(O)CC(O)(CC(=O)O)C(=O)O` [Oxalamine citrate salt], the HDAC3 slope is 60752.

Take `COc1cc([C@@H]2c3cc4c(cc3[C@H](O)[C@H]3COC(=O)[C@H]23)OCO4)cc(OC)c1OC` [Podophyllo toxin, podophyllotoxin]: the HDAC3 slope was 53416.

In the case of `Oc1cc2c(c(Cl)c1O)CCNC[C@@H]2c1ccccc1` [R(+)-SKF- 81297], the HDAC3 slope amounted to 66733.

Take `CP(=O)(O)CCCN` [SK&F 97541]: the HDAC3 slope stood at 54915.

As for “phenazopyridine hydrochloride [Phenazo- pyridine hydrochloride]”, the HDAC3 slope is on record as 56613.

Staying with this test, now noted: slope normalized to mean of DMSO control (DMSO = 1.00).
Consider `NCC(CC(=O)O)c1ccc(Cl)s1` (racemic) [(+-)-4-amino-3-(5-chloro-2-thienyl)-butanoic acid], for which the “% HDAC3 Activ” value is on record as 0.99 fraction of DMSO control.

As to “phenazopyridine hydrochloride [Phenazo- pyridine hydrochloride]”, the “% HDAC3 Activ” value was 1.04 fraction of DMSO control.

The next test concerns the target T2, recombinant human HDAC2 (Homo sapiens, UniProt Q92769).
T2 construct: purchased BPS Biosciences
In words: 384-well fluorometric deacetylase assay (substrate MAZ1600), HDAC2. Format: biochemical. Conditions: rate of reaction (slope); DMSO control 40839.
Description: as §1
Consider `NC(C(=O)O)c1nnn[nH]1` (racemic), for which the HDAC2 slope worked out at 42215.

Take `NCC(CC(=O)O)c1ccc(Cl)s1` (racemic) [(+-)-4-amino-3-(5-chloro-2-thienyl)-butanoic acid]: the HDAC2 slope was determined as 40008.

As for `CC1(C)S[C@@H]2[C@H](NC(=O)[C@H](N)c3ccccc3)C(=O)N2[C@H]1C(=O)O` [Ampicillin trihydrate], the HDAC2 slope was 43966.

`O=C(O)[C@H]1C[C@@H](CP(=O)(O)O)CCN1` [CGS 19755]: the HDAC2 slope was 42301.

Regarding `N[C@H](CC(=O)O)C(=O)O` [D- ASPARTIC ACID, D-aspartic acid], the HDAC2 slope came out at 42016.

`CC(O)(P(=O)([O-])O)P(=O)([O-])O.[Na+].[Na+]` [Etidronic acid, disodium salt]: the HDAC2 slope is 41315.

With `O=C(O)[C@@H]1C[C@H]2C[C@@H](CP(=O)(O)O)CC[C@H]2CN1` [LY 235959], the HDAC2 slope was 42923.

For `C[C@H](N)[C@H](O)c1ccc(O)c(O)c1` [Levonordefrin], the HDAC2 slope came to 40182.

Take `C[C@](N)(Cc1ccc(O)c(O)c1)C(=O)O` [Methyldopa (L,-)]: the HDAC2 slope is on record as 42153.

Regarding `CCN(CC)CCc1nc(-c2ccccc2)no1.O=C(O)CC(O)(CC(=O)O)C(=O)O` [Oxalamine citrate salt], the HDAC2 slope was found to be 41269.

For `COc1cc([C@@H]2c3cc4c(cc3[C@H](O)[C@H]3COC(=O)[C@H]23)OCO4)cc(OC)c1OC` [Podophyllo toxin, podophyllotoxin], the HDAC2 slope is 39197.

For `Oc1cc2c(c(Cl)c1O)CCNC[C@@H]2c1ccccc1` [R(+)-SKF- 81297], the HDAC2 slope was found to be 42197.

With `CP(=O)(O)CCCN` [SK&F 97541], the HDAC2 slope is 39881.

Regarding “phenazopyridine hydrochloride [Phenazo- pyridine hydrochloride]”, the HDAC2 slope is given as 42470.

The same test, now with this note: slope normalized to mean of DMSO control (DMSO = 1.00).
`NCC(CC(=O)O)c1ccc(Cl)s1` (racemic) [(+-)-4-amino-3-(5-chloro-2-thienyl)-butanoic acid]: the “% HDAC2 Activ” value is 0.98 fraction of DMSO control.

Consider “phenazopyridine hydrochloride [Phenazo- pyridine hydrochloride]”, for which the “% HDAC2 Activ” value was 1.04 fraction of DMSO control.

A further test deals with T3, recombinant human HDAC1 (Homo sapiens, UniProt Q13547).
T3 construct: purchased BPS Biosciences
T3 sequence (Q13547 whole entry): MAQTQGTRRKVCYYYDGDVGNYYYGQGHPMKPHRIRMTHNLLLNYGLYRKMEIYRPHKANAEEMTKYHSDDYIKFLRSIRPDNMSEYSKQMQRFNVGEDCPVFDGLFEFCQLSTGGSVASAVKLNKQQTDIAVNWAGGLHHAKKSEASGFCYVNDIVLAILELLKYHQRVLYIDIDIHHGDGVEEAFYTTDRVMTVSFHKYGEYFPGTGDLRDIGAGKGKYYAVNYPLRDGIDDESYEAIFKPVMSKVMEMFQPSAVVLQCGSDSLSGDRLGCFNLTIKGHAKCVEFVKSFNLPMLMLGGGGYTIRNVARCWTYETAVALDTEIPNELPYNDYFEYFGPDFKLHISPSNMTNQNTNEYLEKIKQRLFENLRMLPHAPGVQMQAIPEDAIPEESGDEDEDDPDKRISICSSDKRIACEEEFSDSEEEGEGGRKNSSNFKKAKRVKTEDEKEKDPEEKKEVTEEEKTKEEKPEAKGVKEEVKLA
In words: 384-well fluorometric deacetylase assay (substrate MAZ1600), HDAC1. Conditions: class assigned from the HDAC1, 2, 3, 5 panel. Set-up: % HDAC1 Activ: unit not given here. Format: biochemical.
Description: as §1
For `NC(C(=O)O)c1nnn[nH]1` (racemic), the Classification entry was “HDAC1 activator”.

Regarding `NCC(CC(=O)O)c1ccc(Cl)s1` (racemic) [(+-)-4-amino-3-(5-chloro-2-thienyl)-butanoic acid], the Classification result is given as “HDAC1 activator”.

Consider `CC1(C)S[C@@H]2[C@H](NC(=O)[C@H](N)c3ccccc3)C(=O)N2[C@H]1C(=O)O` [Ampicillin trihydrate], for which the Classification entry is recorded as “HDAC1 & HDAC3 activator”.

Take `O=C(O)[C@H]1C[C@@H](CP(=O)(O)O)CCN1` [CGS 19755]: the Classification entry is “HDAC1 activator”.

As for `N[C@H](CC(=O)O)C(=O)O` [D- ASPARTIC ACID, D-aspartic acid], the Classification result is reported as “HDAC1 activator”.

For the molecule `CC(O)(P(=O)([O-])O)P(=O)([O-])O.[Na+].[Na+]` [Etidronic acid, disodium salt], the Classification result is recorded as “HDAC1 & HDAC3 activator”.

On to `O=C(O)[C@@H]1C[C@H]2C[C@@H](CP(=O)(O)O)CC[C@H]2CN1` [LY 235959], for which the Classification result was “HDAC1 & HDAC3 activator”.

Consider `C[C@H](N)[C@H](O)c1ccc(O)c(O)c1` [Levonordefrin], for which the Classification result is recorded as “HDAC1 & HDAC3 activator”.

Take `C[C@](N)(Cc1ccc(O)c(O)c1)C(=O)O` [Methyldopa (L,-)]: the Classification result was “HDAC1 & HDAC3 activator”.

As to `CCN(CC)CCc1nc(-c2ccccc2)no1.O=C(O)CC(O)(CC(=O)O)C(=O)O` [Oxalamine citrate salt], the Classification result was “HDAC1 & HDAC3 activator”.

With `COc1cc([C@@H]2c3cc4c(cc3[C@H](O)[C@H]3COC(=O)[C@H]23)OCO4)cc(OC)c1OC` [Podophyllo toxin, podophyllotoxin], the Classification entry is given as “HDAC1 activator”.

Consider `Oc1cc2c(c(Cl)c1O)CCNC[C@@H]2c1ccccc1` [R(+)-SKF- 81297], for which the Classification result is listed as “HDAC1 & HDAC3 activator”.

Regarding `CP(=O)(O)CCCN` [SK&F 97541], the Classification result was “HDAC1 activator”.

For “phenazopyridine hydrochloride [Phenazo- pyridine hydrochloride]”, the Classification result is “HDAC1 activator”.

The test is the same for the next values; noted with them: rate of reaction (slope); DMSO control 37787.
With `NC(C(=O)O)c1nnn[nH]1` (racemic), the HDAC1 slope is on record as 40343.

Take `NCC(CC(=O)O)c1ccc(Cl)s1` (racemic) [(+-)-4-amino-3-(5-chloro-2-thienyl)-butanoic acid]: the HDAC1 slope was determined as 40239.

Regarding `CC1(C)S[C@@H]2[C@H](NC(=O)[C@H](N)c3ccccc3)C(=O)N2[C@H]1C(=O)O` [Ampicillin trihydrate], the HDAC1 slope worked out at 40160.

As to `O=C(O)[C@H]1C[C@@H](CP(=O)(O)O)CCN1` [CGS 19755], the HDAC1 slope turned out to be 41839.

In the case of `N[C@H](CC(=O)O)C(=O)O` [D- ASPARTIC ACID, D-aspartic acid], the HDAC1 slope is reported as 40655.

With `CC(O)(P(=O)([O-])O)P(=O)([O-])O.[Na+].[Na+]` [Etidronic acid, disodium salt], the HDAC1 slope is recorded as 40241.

`O=C(O)[C@@H]1C[C@H]2C[C@@H](CP(=O)(O)O)CC[C@H]2CN1` [LY 235959]: the HDAC1 slope was found to be 40893.

For the molecule `C[C@H](N)[C@H](O)c1ccc(O)c(O)c1` [Levonordefrin], the HDAC1 slope is 40405.

For the molecule `C[C@](N)(Cc1ccc(O)c(O)c1)C(=O)O` [Methyldopa (L,-)], the HDAC1 slope stood at 40553.

As to `CCN(CC)CCc1nc(-c2ccccc2)no1.O=C(O)CC(O)(CC(=O)O)C(=O)O` [Oxalamine citrate salt], the HDAC1 slope is given as 40700.

With `COc1cc([C@@H]2c3cc4c(cc3[C@H](O)[C@H]3COC(=O)[C@H]23)OCO4)cc(OC)c1OC` [Podophyllo toxin, podophyllotoxin], the HDAC1 slope is on record as 40983.

On to `Oc1cc2c(c(Cl)c1O)CCNC[C@@H]2c1ccccc1` [R(+)-SKF- 81297], for which the HDAC1 slope is recorded as 40201.

`CP(=O)(O)CCCN` [SK&F 97541]: the HDAC1 slope amounted to 40213.

On to “phenazopyridine hydrochloride [Phenazo- pyridine hydrochloride]”, for which the HDAC1 slope came to 40631.

Staying with this test, now noted: slope normalized to mean of DMSO control (DMSO = 1.00).
Regarding `NCC(CC(=O)O)c1ccc(Cl)s1` (racemic) [(+-)-4-amino-3-(5-chloro-2-thienyl)-butanoic acid], the “% HDAC1 Activ” value is recorded as 1.06.

In the case of “phenazopyridine hydrochloride [Phenazo- pyridine hydrochloride]”, the “% HDAC1 Activ” value is listed as 1.08.

The target in the next test is T4, recombinant human HDAC5 (Homo sapiens, UniProt Q9UQL6).
T4 construct: purchased BPS Biosciences
T4 sequence (Q9UQL6 whole entry): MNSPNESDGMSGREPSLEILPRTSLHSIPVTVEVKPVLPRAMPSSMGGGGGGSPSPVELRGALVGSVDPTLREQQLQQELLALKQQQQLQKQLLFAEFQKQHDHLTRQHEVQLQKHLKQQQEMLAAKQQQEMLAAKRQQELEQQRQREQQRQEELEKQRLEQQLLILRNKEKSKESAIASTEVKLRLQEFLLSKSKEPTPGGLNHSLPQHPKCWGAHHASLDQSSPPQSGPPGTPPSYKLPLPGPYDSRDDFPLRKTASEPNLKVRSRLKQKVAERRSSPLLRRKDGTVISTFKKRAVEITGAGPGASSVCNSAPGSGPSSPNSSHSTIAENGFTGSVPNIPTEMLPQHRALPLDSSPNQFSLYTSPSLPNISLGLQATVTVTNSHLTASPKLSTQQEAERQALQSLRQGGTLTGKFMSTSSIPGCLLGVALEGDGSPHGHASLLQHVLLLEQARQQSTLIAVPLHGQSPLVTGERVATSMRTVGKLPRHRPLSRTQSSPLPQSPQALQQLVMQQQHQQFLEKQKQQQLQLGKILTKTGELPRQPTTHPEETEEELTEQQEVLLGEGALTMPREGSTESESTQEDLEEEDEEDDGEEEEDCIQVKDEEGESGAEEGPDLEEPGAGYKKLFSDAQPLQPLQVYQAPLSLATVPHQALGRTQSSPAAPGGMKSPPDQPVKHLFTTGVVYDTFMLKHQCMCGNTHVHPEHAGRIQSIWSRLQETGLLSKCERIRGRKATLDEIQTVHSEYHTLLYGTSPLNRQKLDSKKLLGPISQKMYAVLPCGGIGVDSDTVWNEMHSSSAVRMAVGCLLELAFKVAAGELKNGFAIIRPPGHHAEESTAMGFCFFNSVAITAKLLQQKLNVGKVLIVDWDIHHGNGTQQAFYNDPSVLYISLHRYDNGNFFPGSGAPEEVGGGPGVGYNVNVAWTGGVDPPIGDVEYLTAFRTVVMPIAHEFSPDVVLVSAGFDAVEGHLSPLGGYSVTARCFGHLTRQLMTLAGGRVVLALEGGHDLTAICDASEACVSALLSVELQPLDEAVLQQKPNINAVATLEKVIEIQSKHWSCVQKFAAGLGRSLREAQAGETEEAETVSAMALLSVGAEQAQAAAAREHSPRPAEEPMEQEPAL
In words: 384-well fluorometric deacetylase assay (substrate MAZ1675), HDAC5. Conditions: rate of reaction (slope); DMSO control 50401. Format: biochemical.
Description: as §1
Turning to `NC(C(=O)O)c1nnn[nH]1` (racemic), the HDAC5 slope was determined as 45589.

As to `NCC(CC(=O)O)c1ccc(Cl)s1` (racemic) [(+-)-4-amino-3-(5-chloro-2-thienyl)-butanoic acid], the HDAC5 slope is given as 50272.

As to `CC1(C)S[C@@H]2[C@H](NC(=O)[C@H](N)c3ccccc3)C(=O)N2[C@H]1C(=O)O` [Ampicillin trihydrate], the HDAC5 slope was found to be 46606.

Take `O=C(O)[C@H]1C[C@@H](CP(=O)(O)O)CCN1` [CGS 19755]: the HDAC5 slope amounted to 48280.

On to `N[C@H](CC(=O)O)C(=O)O` [D- ASPARTIC ACID, D-aspartic acid], for which the HDAC5 slope amounted to 45291.

Take `CC(O)(P(=O)([O-])O)P(=O)([O-])O.[Na+].[Na+]` [Etidronic acid, disodium salt]: the HDAC5 slope turned out to be 51711.

On to `O=C(O)[C@@H]1C[C@H]2C[C@@H](CP(=O)(O)O)CC[C@H]2CN1` [LY 235959], for which the HDAC5 slope was 43688.

As to `C[C@H](N)[C@H](O)c1ccc(O)c(O)c1` [Levonordefrin], the HDAC5 slope is reported as 47752.

Consider `C[C@](N)(Cc1ccc(O)c(O)c1)C(=O)O` [Methyldopa (L,-)], for which the HDAC5 slope is listed as 56516.

On to `CCN(CC)CCc1nc(-c2ccccc2)no1.O=C(O)CC(O)(CC(=O)O)C(=O)O` [Oxalamine citrate salt], for which the HDAC5 slope was 47216.

`COc1cc([C@@H]2c3cc4c(cc3[C@H](O)[C@H]3COC(=O)[C@H]23)OCO4)cc(OC)c1OC` [Podophyllo toxin, podophyllotoxin]: the HDAC5 slope amounted to 54734.

In the case of `Oc1cc2c(c(Cl)c1O)CCNC[C@@H]2c1ccccc1` [R(+)-SKF- 81297], the HDAC5 slope is on record as 48294.

With `CP(=O)(O)CCCN` [SK&F 97541], the HDAC5 slope is 49250.

As to “phenazopyridine hydrochloride [Phenazo- pyridine hydrochloride]”, the HDAC5 slope was 54125.

The same test, now with this note: slope normalized to mean of DMSO control (DMSO = 1.00).
For the molecule `NCC(CC(=O)O)c1ccc(Cl)s1` (racemic) [(+-)-4-amino-3-(5-chloro-2-thienyl)-butanoic acid], the “% HDAC5 activ” value is 100%.

In the case of “phenazopyridine hydrochloride [Phenazo- pyridine hydrochloride]”, the “% HDAC5 activ” value was found to be 107%.
